Experimental data: US20240270698A2, “NOVEL PYRIMIDINE DERIVATIVE AND USE THEREOF” (KOREA RESEARCH INSTITUTE OF CHEMICAL TECHNOLOGY, priority 2019, published 2024)

Experiments:
HepG2 cancer cells = experiment: Anticancer activity, cell viability by CCK-8, HepG2; format: cell-based; details: HepG2, 10 μM, 72 hours
Procedure, shortened: (§1)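 HS746T or HepG2 cells seeded at 4,000 cells/well, left 24 h, then exposed to compounds for 72 h. Viability measured by CCK-8 and expressed as % of untreated control.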

[1] = target: T1, human recombinant LRRK2 protein (Homo sapiens, UniProt Q5S007); experiment: LRRK2 kinase activity assay (Eurofins, gamma-33P-ATP, filtermat scintillation counting); format: biochemical; details: human recombinant LRRK2, 40 minutes at room temperature
T1 construct: purchased Eurofins
T1 sequence (Q5S007 whole entry): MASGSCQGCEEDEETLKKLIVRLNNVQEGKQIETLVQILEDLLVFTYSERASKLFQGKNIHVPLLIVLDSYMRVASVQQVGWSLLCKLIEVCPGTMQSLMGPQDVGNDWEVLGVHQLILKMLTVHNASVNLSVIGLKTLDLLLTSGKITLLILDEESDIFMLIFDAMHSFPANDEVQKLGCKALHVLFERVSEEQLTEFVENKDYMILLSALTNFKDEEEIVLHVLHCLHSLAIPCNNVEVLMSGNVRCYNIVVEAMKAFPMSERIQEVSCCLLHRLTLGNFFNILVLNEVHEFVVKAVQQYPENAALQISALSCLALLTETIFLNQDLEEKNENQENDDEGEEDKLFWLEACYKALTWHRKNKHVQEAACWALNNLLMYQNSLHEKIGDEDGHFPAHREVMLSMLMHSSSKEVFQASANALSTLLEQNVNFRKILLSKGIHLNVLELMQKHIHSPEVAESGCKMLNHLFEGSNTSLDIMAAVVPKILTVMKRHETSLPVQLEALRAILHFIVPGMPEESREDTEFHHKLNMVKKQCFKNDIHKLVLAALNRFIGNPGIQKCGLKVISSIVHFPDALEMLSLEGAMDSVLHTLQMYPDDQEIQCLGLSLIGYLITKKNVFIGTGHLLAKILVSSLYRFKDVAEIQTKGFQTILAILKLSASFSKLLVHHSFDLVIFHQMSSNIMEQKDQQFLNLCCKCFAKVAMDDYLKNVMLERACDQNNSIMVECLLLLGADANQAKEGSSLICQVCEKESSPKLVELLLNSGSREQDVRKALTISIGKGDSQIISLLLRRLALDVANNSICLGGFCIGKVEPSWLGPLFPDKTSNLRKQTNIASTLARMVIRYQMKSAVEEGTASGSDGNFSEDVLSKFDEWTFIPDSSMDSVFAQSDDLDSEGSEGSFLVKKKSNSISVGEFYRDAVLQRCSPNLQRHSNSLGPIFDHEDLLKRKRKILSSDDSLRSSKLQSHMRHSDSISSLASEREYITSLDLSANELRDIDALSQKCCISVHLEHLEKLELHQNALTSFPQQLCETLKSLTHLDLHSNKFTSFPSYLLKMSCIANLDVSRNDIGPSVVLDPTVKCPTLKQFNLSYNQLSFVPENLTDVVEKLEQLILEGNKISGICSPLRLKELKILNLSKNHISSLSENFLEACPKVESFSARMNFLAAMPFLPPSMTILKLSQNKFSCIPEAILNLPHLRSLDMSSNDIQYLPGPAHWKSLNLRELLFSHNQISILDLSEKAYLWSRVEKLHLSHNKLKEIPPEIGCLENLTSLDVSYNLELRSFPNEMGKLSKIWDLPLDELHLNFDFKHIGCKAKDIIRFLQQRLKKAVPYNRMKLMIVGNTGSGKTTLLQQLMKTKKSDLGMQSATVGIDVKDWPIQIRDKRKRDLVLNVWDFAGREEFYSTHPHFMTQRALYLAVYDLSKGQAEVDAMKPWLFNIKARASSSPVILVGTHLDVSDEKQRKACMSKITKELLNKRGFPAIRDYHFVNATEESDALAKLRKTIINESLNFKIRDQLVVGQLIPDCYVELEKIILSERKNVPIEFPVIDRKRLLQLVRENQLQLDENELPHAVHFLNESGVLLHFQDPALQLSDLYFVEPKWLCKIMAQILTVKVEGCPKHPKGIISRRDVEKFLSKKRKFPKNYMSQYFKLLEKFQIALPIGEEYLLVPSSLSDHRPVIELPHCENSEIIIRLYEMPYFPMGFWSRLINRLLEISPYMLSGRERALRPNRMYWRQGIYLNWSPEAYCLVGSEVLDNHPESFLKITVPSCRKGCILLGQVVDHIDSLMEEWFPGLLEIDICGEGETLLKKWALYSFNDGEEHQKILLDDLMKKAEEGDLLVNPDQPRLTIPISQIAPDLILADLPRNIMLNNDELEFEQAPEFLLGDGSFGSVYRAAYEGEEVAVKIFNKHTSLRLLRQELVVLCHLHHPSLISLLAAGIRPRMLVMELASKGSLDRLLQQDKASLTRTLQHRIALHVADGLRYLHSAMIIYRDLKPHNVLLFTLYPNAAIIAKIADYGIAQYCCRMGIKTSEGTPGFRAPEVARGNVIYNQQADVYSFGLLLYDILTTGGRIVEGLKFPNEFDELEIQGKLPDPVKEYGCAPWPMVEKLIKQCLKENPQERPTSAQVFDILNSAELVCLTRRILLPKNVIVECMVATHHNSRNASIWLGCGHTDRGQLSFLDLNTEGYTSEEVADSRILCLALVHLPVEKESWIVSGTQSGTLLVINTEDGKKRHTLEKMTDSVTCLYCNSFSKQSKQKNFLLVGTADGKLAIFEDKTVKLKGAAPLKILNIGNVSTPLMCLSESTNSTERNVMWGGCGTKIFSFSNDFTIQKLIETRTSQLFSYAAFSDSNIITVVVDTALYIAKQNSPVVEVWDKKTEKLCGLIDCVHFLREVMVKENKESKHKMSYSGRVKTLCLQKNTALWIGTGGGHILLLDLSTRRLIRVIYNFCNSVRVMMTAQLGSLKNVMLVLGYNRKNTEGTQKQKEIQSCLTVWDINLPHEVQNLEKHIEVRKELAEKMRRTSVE

[2] = target: T2, human recombinant MLK3 protein (Homo sapiens, UniProt Q16584); experiment: MLK3 kinase activity assay (Eurofins, gamma-33P-ATP, filtermat scintillation counting); format: biochemical; details: human recombinant MLK3, 120 minutes at room temperature
T2 construct: purchased Eurofins
T2 sequence (Q16584 whole entry): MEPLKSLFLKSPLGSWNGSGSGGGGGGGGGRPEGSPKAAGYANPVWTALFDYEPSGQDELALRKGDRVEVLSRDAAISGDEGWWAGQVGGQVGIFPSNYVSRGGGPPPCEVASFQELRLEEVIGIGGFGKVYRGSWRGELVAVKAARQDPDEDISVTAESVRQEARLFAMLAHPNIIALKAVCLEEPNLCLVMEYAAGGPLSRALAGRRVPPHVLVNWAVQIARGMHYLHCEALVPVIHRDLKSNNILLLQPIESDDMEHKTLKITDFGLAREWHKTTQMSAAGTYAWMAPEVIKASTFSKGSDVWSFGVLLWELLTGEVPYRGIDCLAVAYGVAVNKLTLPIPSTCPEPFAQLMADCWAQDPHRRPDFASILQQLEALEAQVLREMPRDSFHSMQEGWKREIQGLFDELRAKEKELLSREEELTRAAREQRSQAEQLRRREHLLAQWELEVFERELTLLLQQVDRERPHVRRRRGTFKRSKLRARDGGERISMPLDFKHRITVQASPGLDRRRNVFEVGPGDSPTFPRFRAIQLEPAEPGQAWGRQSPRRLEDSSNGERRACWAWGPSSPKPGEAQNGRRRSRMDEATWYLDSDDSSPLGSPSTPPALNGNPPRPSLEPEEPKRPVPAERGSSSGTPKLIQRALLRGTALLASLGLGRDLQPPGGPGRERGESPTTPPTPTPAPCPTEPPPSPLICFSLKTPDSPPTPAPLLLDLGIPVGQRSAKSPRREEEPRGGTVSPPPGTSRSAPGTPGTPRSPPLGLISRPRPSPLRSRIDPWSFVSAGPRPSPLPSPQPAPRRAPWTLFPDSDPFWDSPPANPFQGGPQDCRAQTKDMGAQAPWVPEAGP

HS746T cancer cells = experiment: Anticancer activity, cell viability by CCK-8, HS746T; format: cell-based; details: 72 hours
Procedure, shortened: as §1

IC50 [1]: 1 to 10 nM
IC50 [2]: 1 to 10 nM
SMILES: CC1(C)CNCc2cc(Nc3ncc(Cl)c(Nc4ccccc4P(C)(C)=O)n3)ccc21 [compound 52, (2-((5-Chloro-2-((4,4-dimethyl-1,2,3,4-tetrahydroisoquinolin-7-yl)amino)pyrimidin-4-yl)amino)phenyl)dimethylphosphine oxide]
Cell viability (% of Con. 10 μM) HepG2 (HepG2 cancer cells): 21 % of Con.
Cell viability (% of Con. 10 μM) HS746T (HS746T cancer cells): 1 % of Con.
